Results from ChEMBL document CHEMBL1201862, “PubChem BioAssay data set” (2004).
The source made the active and inactive calls.

Experiments:
[1] = target: T1, Probable nicotinate-nucleotide adenylyltransferase (Staphylococcus aureus (strain N315), UniProt P65502); format: functional, Staphylococcus aureus subsp. aureus N315;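 on IC50 Mean: confirmatory dose-response retesting of NadD inhibitor hits first found in an ultra-high-throughput screen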
[2] = target: T1, Probable nicotinate-nucleotide adenylyltransferase; format: functional, Staphylococcus aureus subsp. aureus N315; details: read-out: IC50_Mean
HEK293 [3] = assay: NOD1 signaling inhibitors, primary screen, cell-based, luminescence, uHTS (AID 1578); format: functional; details: Homo sapiens
HEK293 [4] = assay: cells; format: functional, cell-based; details: Homo sapiens
HEK293 [5] = assay: cells; format: functional, cell-based; details: Homo sapiens; remark: listed apart in the source
[6] = target: Nucleotide-binding oligomerization domain-containing protein 2 (Homo sapiens, UniProt Q9HC29); assay: NOD2 signaling inhibitors, cell-based, luminescence, uHTS, HEK293 (AID 1566); format: functional
HEK293 [7] = assay: NOD2 signaling inhibitors in MDP-stimulated cells, cell-based, uHTS, luminescence (AID 2001); format: functional; details: Homo sapiens
[8] = target: T2, Carboxy-terminal domain RNA polymerase II polypeptide A small phosphatase 1 (Homo sapiens, UniProt Q9GZU7); assay: inhibitors of CTDSP1, concentration-response testing, biochemical assay, absorbance-based, actives from ultra-high-throughput screening (AID 540297); format: functional
T2 sequence (Q9GZU7 whole entry): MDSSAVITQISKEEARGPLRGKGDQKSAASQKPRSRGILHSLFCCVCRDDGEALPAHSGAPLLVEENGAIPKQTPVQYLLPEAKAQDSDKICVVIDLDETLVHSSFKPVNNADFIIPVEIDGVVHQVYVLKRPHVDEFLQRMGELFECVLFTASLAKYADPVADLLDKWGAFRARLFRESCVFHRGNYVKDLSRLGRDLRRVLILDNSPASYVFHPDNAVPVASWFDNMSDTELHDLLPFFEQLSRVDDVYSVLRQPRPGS

[9] = target: T3, Tyrosine-protein phosphatase non-receptor type 11 (Homo sapiens, UniProt Q06124); assay: SHP2 phosphatase inhibition, dose response, selectivity assay for STEP inhibitor project, biochemical (AID 602367); format: functional; details: read-out: IC50_Mean
T3 sequence (Q06124 whole entry): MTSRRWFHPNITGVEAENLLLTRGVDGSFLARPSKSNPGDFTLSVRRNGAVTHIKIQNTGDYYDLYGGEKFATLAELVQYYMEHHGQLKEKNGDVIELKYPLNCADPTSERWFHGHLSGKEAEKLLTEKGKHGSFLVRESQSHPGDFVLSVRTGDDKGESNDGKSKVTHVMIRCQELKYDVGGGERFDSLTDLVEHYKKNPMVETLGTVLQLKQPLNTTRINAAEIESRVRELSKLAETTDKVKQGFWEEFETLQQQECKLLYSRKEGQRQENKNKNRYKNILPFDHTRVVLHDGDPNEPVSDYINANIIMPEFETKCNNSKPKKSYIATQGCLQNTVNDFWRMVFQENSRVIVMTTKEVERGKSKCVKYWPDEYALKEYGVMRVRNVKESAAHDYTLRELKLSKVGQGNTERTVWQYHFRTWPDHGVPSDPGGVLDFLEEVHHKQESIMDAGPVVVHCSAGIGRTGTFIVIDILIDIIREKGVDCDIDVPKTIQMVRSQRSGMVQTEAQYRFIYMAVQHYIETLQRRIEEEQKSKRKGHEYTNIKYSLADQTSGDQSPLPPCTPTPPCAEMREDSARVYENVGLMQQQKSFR

[10] = target: T4, Tyrosine-protein phosphatase non-receptor type 5 (Homo sapiens, UniProt P54829); assay: STEP phosphatase inhibitors, confirmation, biochemical, fluorescence intensity, uHTS hits (AID 602372); format: functional; details: read-out: IC50_Mean
T4 sequence (P54829 whole entry): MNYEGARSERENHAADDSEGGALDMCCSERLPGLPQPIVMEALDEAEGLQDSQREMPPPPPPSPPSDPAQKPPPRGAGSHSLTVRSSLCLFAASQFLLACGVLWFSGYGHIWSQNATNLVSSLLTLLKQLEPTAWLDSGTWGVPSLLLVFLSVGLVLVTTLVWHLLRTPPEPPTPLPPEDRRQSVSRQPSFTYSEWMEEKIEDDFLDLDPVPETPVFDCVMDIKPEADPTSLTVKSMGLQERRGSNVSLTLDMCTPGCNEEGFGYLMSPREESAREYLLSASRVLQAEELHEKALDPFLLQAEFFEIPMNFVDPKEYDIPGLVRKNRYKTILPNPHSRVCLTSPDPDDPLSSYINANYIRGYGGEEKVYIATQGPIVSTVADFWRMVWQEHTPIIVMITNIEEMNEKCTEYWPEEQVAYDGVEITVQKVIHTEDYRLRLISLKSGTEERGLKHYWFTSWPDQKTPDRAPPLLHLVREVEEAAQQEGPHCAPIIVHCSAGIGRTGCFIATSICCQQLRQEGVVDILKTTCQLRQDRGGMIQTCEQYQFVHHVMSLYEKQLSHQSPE

[11] = target: Dual specificity protein phosphatase 3 (Homo sapiens, UniProt P51452); assay: VHR phosphatase inhibition, dose response, selectivity assay for STEP inhibitor project, biochemical (AID 602374); format: functional; details: read-out: IC50_Mean
[12] = target: T5, Small ubiquitin-related modifier 1 (Homo sapiens, UniProt P63165); assay: inhibitors of SUMO1 peptide binding, dose response, biochemical, fluorescence polarization, uHTS hits (AID 624382); format: functional; details: read-out: IC50_Mean
[13] = target: T6, Low molecular weight phosphotyrosine protein phosphatase (Homo sapiens, UniProt P24666); format: functional; details: read-out: IC50_Mean
T6 sequence (P24666 whole entry): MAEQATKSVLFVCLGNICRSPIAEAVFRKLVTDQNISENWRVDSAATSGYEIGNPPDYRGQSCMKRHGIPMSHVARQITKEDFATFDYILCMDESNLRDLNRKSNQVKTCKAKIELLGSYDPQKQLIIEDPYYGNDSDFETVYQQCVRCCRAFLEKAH

[14] = target: T5, Small ubiquitin-related modifier 1; assay: inhibitors of SUMO1 partner interactions, dose response, biochemical, FRET (AID 624383); format: functional; details: read-out: IC50_Mean
[15] = target: T6, Low molecular weight phosphotyrosine protein phosphatase; format: functional; details: read-out: IC50_Mean; remark: listed apart in the source
Caspase-6 = target: T7, Caspase-6 (Homo sapiens, UniProt P55212); assay: human caspase-6 inhibitors, dose response, biochemical, VEID-R110 fluorescence, cherry-pick (AID 720632)
T7 sequence (P55212 whole entry): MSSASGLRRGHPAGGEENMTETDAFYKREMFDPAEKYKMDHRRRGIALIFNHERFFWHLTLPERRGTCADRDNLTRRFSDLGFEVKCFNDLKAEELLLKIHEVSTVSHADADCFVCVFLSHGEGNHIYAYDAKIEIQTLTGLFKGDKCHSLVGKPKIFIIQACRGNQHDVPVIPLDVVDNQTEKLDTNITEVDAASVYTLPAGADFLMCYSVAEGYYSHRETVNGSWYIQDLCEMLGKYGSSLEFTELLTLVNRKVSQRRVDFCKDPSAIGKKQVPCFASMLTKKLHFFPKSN

Caspase-8 = Caspase-8 (Homo sapiens, UniProt Q14790); assay: caspase-8 inhibition counter-screen, dose response, selectivity assay for caspase-6 inhibitor project, biochemical, Z-IETD-R110 fluorescence, cherry-picked samples (AID 743294)
Sequence of Caspase-8 (Q14790 217-374 limits assumed): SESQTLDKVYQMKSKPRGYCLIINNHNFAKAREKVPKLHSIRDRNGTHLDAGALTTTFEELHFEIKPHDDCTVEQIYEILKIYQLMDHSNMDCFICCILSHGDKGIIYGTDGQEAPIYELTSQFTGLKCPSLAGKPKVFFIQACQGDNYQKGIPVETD
Sequence of Caspase-8 (Q14790 385-479 limits assumed): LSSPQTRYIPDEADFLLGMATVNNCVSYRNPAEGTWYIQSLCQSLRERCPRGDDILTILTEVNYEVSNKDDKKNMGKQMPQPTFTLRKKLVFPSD

T1 sequence (P65502 whole entry): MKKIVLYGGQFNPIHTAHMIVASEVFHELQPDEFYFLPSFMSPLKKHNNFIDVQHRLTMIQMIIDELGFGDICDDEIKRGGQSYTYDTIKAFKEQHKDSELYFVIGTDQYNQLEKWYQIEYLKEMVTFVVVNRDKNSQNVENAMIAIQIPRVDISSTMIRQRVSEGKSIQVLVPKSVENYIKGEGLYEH
T5 sequence (P63165 whole entry): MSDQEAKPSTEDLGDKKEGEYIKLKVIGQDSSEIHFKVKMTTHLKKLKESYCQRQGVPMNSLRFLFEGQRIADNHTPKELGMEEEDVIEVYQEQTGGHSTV
Sequence of Dual specificity protein phosphatase 3 (P51452 whole entry): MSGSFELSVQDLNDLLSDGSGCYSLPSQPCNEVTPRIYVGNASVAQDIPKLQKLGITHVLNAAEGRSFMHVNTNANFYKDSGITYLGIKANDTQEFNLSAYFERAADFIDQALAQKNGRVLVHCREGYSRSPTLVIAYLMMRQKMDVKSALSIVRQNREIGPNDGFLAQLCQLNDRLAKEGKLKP
Sequence of Nucleotide-binding oligomerization domain-containing protein 2 (Q9HC29 whole entry, the tested form may be a part): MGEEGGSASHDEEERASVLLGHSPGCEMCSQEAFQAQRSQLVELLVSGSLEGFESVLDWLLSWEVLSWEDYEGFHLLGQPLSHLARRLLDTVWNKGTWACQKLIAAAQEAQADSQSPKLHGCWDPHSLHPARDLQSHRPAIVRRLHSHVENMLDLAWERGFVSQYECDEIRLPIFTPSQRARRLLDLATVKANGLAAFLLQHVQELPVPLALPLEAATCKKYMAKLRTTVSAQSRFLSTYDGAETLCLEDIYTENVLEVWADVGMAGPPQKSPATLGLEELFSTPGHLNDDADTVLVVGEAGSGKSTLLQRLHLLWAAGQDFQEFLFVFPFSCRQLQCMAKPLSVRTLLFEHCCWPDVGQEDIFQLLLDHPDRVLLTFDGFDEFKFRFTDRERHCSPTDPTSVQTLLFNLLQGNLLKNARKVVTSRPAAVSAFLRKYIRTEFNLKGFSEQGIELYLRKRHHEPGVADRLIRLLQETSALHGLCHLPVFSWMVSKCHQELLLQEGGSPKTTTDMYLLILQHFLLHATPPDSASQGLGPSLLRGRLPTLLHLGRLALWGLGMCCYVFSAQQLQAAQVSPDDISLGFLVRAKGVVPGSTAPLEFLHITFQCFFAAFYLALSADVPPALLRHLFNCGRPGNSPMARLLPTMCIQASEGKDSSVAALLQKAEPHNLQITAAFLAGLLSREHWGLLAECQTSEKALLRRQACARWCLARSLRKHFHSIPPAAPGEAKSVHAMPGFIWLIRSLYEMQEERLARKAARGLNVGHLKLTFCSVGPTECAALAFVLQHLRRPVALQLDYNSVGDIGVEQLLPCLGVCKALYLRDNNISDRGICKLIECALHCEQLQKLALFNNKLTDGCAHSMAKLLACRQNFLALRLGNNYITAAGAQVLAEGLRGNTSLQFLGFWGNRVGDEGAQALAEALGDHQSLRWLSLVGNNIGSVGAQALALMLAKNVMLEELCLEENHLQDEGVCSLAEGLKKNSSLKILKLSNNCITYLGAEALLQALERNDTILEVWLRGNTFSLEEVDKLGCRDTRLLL

Structure (SMILES)	IC50 [1]	IC50 [2]	EC50 (HEK293 [3])	IC50 (HEK293 [4])	IC50 (HEK293 [5])	EC50 [6]	IC50 (HEK293 [7])	IC50 [8]	IC50 [9]	IC50 [10]	IC50 [11]	IC50 [12]	IC50 [13]	IC50 [14]	IC50 [15]	AC50 (Caspase-6)	AC50 (Caspase-8)
Cc1ccc(-c2cc(C(=O)Nc3ccc(S(=O)(=O)Nc4onc(C)c4C)cc3)c3ccccc3n2)cc1	5.56 µM (active)	20.1 µM (active)															
Cc1c(CCC(=O)O)c(=O)oc2c(C)c(OCc3ccccc3Cl)ccc12			> 20 µM (inactive)	9.68 µM (active)	> 20 µM (inactive)	2.94 µM (active)	> 20 µM (inactive)	1.99 µM (active)	1.55 µM (active)	2.94 µM (active)	1.56 µM (active)	> 66.6 µM (inactive)	4.25 µM (active)	9.18 µM (active)	6.36 µM (active)	1.38 µM (active)	> 70 µM (inactive)
